PubChem BioAssay AID846 (PCMD, 2007)
Records with an inconclusive call do not appear. Calls of active or inactive are those of the source. No rule for the calls is given here.

Biological target: Coagulation factor XI (Homo sapiens) (UniProt P03951)
Experiment: FXIa inhibitor IC50 values, dose response, biochemical, hits from 1536-well screen (AID 846)
Settings: purified human plasma factor XIa, fluorogenic AMC substrate, 384-well, 2 h

Sequence of Coagulation factor XI (Homo sapiens) (P03951 19-387 limits assumed): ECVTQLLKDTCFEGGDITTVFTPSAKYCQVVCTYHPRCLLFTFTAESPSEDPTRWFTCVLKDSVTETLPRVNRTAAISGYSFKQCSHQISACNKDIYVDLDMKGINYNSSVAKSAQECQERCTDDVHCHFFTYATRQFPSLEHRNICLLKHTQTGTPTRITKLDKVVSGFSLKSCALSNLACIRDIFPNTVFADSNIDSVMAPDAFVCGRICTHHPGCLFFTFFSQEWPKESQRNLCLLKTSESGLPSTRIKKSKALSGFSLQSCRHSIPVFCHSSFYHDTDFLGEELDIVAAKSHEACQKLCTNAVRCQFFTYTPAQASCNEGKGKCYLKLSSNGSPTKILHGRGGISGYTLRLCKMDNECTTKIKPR
Sequence of Coagulation factor XI (Homo sapiens) (P03951 388-625 limits assumed): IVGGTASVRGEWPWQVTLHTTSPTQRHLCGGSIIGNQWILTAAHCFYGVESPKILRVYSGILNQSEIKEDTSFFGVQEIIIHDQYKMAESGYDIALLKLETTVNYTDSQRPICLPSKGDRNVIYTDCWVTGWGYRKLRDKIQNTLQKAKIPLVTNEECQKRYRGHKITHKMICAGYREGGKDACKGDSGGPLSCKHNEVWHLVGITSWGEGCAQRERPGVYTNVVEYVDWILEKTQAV

| Structure (SMILES) | IC50 |
| --- | --- |
| COc1cc(/C=N/Nc2cc(C)nc(NS(=O)(=O)c3ccccc3)n2)ccc1O | > 50 µM (inactive) |
| CCc1ccccc1N1C(=O)CC(=O)NC1=O | > 50 µM (inactive) |
| Cc1cccc(NC(=O)c2cc(N3C(=O)CCC3=O)ccc2Cl)n1 | > 50 µM (inactive) |
| Brc1cccc(/C=N/Nc2nn[nH]n2)c1 | > 50 µM (inactive) |
| O=C1CC(N2CCC(c3nc4ccccc4o3)CC2)C(=O)N1c1ccc(Cl)c(C(F)(F)F)c1 (stereo not drawn) | > 50 µM (inactive) |
| C=CCOC(=O)C1=C(C)Nc2[nH]c(=O)[nH]c(=O)c2C1c1ccccc1 (stereo not drawn) | > 50 µM (inactive) |
| Oc1ccc(/C=N/Nc2nc(-c3cccnc3)nc3ccccc23)c(O)c1 | > 50 µM (inactive) |
| O=C1CC(Sc2ccc(Cl)cc2)C(=O)N1c1ccc2c(c1)OCCO2 (stereo not drawn) | > 50 µM (inactive) |
